In patent US20080026996A1, “Selective Vpac2 Receptor Reptide Agonists” (ELI LILLY AND COMPANY, priority 2004, published 2008):
Where a SMILES comes first, the peptide text is derived from it. Where no end group is shown, it is not given here. [ ]: non-standard residue; d: D form. The star is where a group is joined. Hexanoyl = CCCCCC(=O)*; Aib = CC(C)(N)C(=O)O

Experiments:
human VPAC2 [1] = biological target: T1, human VPAC2 (Homo sapiens, UniProt P41587); experiment: Filter binding assay, membranes of stable VPAC2 cell line, 125I-labeled VIP tracer (Table 2); conditions: read-out: Human VPAC2 Receptor Binding
T1 construct: expressed in transfected cells
T1 sequence (P41587 24-438): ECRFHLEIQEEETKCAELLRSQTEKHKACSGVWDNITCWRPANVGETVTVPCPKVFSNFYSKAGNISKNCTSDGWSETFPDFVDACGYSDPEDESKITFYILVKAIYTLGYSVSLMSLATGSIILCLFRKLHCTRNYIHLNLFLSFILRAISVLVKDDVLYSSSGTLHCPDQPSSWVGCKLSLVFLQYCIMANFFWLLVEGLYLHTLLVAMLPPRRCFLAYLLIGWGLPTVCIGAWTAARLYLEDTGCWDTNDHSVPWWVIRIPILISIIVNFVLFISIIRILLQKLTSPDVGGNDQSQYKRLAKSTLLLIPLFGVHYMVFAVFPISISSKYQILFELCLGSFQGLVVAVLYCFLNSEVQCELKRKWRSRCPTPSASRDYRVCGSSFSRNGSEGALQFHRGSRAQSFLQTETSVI
Procedure, shortened: (§1)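 Scintillation counting of filter-retained radioligand gave the read-out. Compounds competed with the labelled tracer (about 40000 cpm) for 2.5 μg membranes during 1 hour of shaking in HEPES pH 7.4 buffer containing 0.5% BSA.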

human VPAC2 [2] = biological target: T1, human VPAC2; experiment: Alpha screen cAMP in vitro potency, human VPAC2 receptor; assay type: cell-based; conditions: cAMP generation; single result from two analyses performed in a single run; read-out: Human VPAC2 Receptor: Alpha Screen EC50
Description: Alpha screen: Cells are washed in the culture flask once with PBS. Then, the cells are rinsed with enzyme free dissociation buffer. The dissociated cells are removed. The cells are then spun down and washed in stimulation buffer. For each data point, 50,000 cells suspended in stimulation buffer are used. To this buffer, Alpha screen acceptor beads are added along with the stimuli. This mixture is incubated for 60 minutes. Lysis buffer and Alpha screen donor beads are added and are incubated for 60 to 120 minutes. The Alpha screen signal (indicative of intracellular cAMP levels) is read in a suitable instrument (e.g. AlphaQuest from Perkin-Elmer). Steps including Alpha screen donor and acceptor beads are performed in reduced light.

human PAC1 = biological target: T2, human PAC1 (Homo sapiens, UniProt P41586); experiment: Filter binding assay, membranes of cells transiently transfected with human PAC1, 125I-labeled PACAP-27 tracer (Table 2); design: expressed in transfected cells; conditions: read-out: Human PAC1 Receptor Binding
T2 sequence (P41586 21-468): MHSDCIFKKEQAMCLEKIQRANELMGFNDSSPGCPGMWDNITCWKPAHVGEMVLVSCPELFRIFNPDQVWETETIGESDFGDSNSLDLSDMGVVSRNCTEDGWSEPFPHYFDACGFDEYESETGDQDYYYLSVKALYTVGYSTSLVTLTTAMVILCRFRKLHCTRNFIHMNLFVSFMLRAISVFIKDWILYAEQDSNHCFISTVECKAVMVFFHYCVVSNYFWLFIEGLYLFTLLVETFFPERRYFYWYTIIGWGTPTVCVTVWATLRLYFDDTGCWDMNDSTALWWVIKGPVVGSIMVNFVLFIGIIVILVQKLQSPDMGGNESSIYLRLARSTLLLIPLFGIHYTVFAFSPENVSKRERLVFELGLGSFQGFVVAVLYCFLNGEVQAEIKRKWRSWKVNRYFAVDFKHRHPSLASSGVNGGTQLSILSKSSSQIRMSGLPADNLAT
Description: For this assay, the solutions and equipment include:
Presoak solution: 0.5% Polyethyleneamine in Aqua dest.
Buffer for flushing filter plates: 25 mM HEPES pH 7.4
Blocking buffer: 25 mM HEPES pH 7.4; 0.2% protease free BSA
Assay buffer: 25 mM HEPES pH 7.4; 0.5% protease free BSA
Dilution and assay plate: PS-Microplate, U form
Filtration Plate Multiscreen FB Opaque Plate; […] Type B Glasfiber filter
In order to prepare the filter plates, aspirate the presoak solution by vacuum filtration. Flush the plates twice with 200 μL flush buffer. Add 200 μL blocking buffer to the filter plate. The filter plate is then incubated […] for 1 hour at room temperature.
Fill the assay plate with 25 μL assay buffer, 25 μL membranes (2.5 μg) suspended in assay buffer, 25 μL compound (agonist) in assay buffer, and 25 μL tracer (about 40000 cpm) in assay buffer. Incubate the filled plate for 1 hour with shaking.
Conduct the transfer from assay plate to filter plate. Aspirate the blocking buffer by vacuum filtration and wash two times with flush buffer. Transfer 90 μL from the assay plate to the filter plate. Aspirate the 90 μL transferred from assay plate and wash three times with 200 μL flush buffer. Remove the plastic support. Dry for 1 hour at 60° C. Add 30 μL Microscint. Perform the count.

human VPAC1 = biological target: T3, human VPAC1 (Homo sapiens, UniProt P32241); experiment: Filter binding assay, membranes of cells transiently transfected with human VPAC1, 125I-labeled VIP tracer (Table 2); design: expressed in transfected cells; conditions: read-out: Human VPAC1 Receptor Binding
T3 sequence (P32241 31-457): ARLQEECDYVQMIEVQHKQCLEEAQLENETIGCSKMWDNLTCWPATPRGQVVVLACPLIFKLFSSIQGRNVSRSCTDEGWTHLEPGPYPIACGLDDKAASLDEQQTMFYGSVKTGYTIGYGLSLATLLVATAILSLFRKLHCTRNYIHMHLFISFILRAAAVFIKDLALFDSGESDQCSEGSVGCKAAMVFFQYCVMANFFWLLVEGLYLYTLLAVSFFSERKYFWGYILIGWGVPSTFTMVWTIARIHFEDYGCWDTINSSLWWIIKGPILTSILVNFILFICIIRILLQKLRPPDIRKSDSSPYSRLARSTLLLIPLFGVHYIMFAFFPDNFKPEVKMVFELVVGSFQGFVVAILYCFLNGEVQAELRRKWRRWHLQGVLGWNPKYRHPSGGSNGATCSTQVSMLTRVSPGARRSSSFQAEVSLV
Procedure, shortened: as §1

Molecule: CC[C@H](C)[C@H](NC(=O)[C@H](CO)NC(=O)[C@H](CCC(N)=O)NC(=O)[C@H](CC(C)C)NC(=O)[C@H](Cc1ccc(O)cc1)NC(=O)[C@H](CCCCN)NC(=O)[C@H](CCCCN)NC(=O)[C@H](C)NC(=O)[C@H](C)NC(=O)[C@@H](NC(=O)[C@H](CCC(N)=O)NC(=O)[C@H](CCCCN)NC(=O)[C@H](CCCNC(=N)N)NC(=O)[C@H](CC(C)C)NC(=O)[C@H](CCCNC(=N)N)NC(=O)[C@@H](NC(=O)[C@H](Cc1ccc(O)cc1)NC(=O)[C@H](CCC(N)=O)NC(=O)[C@H](CC(=O)O)NC(=O)[C@@H](NC(=O)[C@H](Cc1ccccc1)NC(=O)[C@@H](NC(=O)[C@H](C)NC(=O)[C@H](CC(=O)O)NC(=O)[C@H](CO)NC(=O)[C@H](Cc1c[nH]cn1)NC(=O)[C@@H](N)CCSC)C(C)C)[C@@H](C)O)[C@@H](C)O)C(C)C)C(=O)N[C@@H](CCCCN)C(=O)N[C@@H](CCC(N)=O)C(=O)N[C@@H](CCCCN)C(=O)N[C@@H](CCCNC(=N)N)C(=O)N[C@@H](Cc1ccc(O)cc1)C(=O)NCC(=O)NCC(=O)N1CCC[C@H]1C(=O)N[C@@H](CO)C(=O)N[C@@H](CO)C(=O)NCC(=O)N[C@@H](C)C(=O)N1CCC[C@H]1C(=O)N1CCC[C@H]1C(=O)N1CCC[C@H]1C(=O)N[C@@H](CO)C(=O)O [Agonist P100]
- IC50 (human VPAC2 [1]): 0.4 nM
- EC50 (human VPAC2 [2]): 0.28 nM
- IC50 (human PAC1): 187 nM
- IC50 (human VPAC1): 321 nM

Molecule: Hexanoyl-HSDAVFTDNYTKLKKQVAAKKYLQSIKNKKYGGPSSGAPPPS [Agonist P103]
- IC50 (human VPAC2 [1]): 0.08 nM
- EC50 (human VPAC2 [2]): 0.12 nM
- IC50 (human PAC1): 333 nM
- IC50 (human VPAC1): 228 nM

Molecule: CCCCCC(=O)N[C@@H](Cc1c[nH]cn1)C(=O)N[C@@H](CO)C(=O)N[C@@H](CC(=O)O)C(=O)N[C@@H](C)C(=O)N[C@H](C(=O)N[C@@H](Cc1ccccc1)C(=O)N[C@H](C(=O)N[C@@H](CC(=O)O)C(=O)N[C@@H](CC(N)=O)C(=O)N[C@@H](Cc1ccc(O)cc1)C(=O)N[C@H](C(=O)N[C@@H](CCCNC(=N)N)C(=O)N[C@@H](CC(C)C)C(=O)N[C@@H](CCCNC(=N)N)C(=O)N[C@@H](CCCCN)C(=O)N[C@@H](CCC(N)=O)C(=O)N[C@H](C(=O)N[C@@H](C)C(=O)N[C@@H](C)C(=O)N[C@@H](CCCCN)C(=O)N[C@@H](CCCCN)C(=O)N[C@@H](Cc1ccc(O)cc1)C(=O)N[C@@H](CC(C)C)C(=O)N[C@@H](CCC(N)=O)C(=O)N[C@@H](CO)C(=O)N[C@H](C(=O)N[C@@H](CCCCN)C(=O)N[C@@H](CCC(N)=O)C(=O)N[C@@H](CCCCN)C(=O)NCC(=O)NCC(=O)N1CCC[C@H]1C(=O)N[C@@H](CO)C(=O)N[C@@H](CO)C(=O)NCC(=O)N[C@@H](C)C(=O)N1CCC[C@H]1C(=O)N1CCC[C@H]1C(=O)N1CCC[C@H]1C(=O)N[C@@H](CO)C(=O)O)[C@@H](C)CC)C(C)C)[C@@H](C)O)[C@@H](C)O)C(C)C [Agonist P270] (Hexanoyl-HSDAVFTDNYTRLRKQVAAKKYLQSIKQKGGPSSGAPPPS-OH; C-terminus assumed)
- IC50 (human VPAC2 [1]): 0.15 nM
- EC50 (human VPAC2 [2]): 0.13 nM
- IC50 (human PAC1): 436 nM
- IC50 (human VPAC1): 110 nM

Molecule: Hexanoyl-HSDAVFTDNYTRLRKQVAAKKYLQ[Aib]IKNKRYGGPSSGAPPPS [Agonist P187]
- IC50 (human VPAC2 [1]): 0.17 nM
- EC50 (human VPAC2 [2]): 0.4 nM
- IC50 (human PAC1): 296 nM
- IC50 (human VPAC1): 134 nM

Molecule: Hexanoyl-HSDAVFTDNYTRLRKQVAAKKYLQVIKNKRYGGPSSGAPPPS [Agonist P116]
- IC50 (human VPAC2 [1]): 0.74 nM
- EC50 (human VPAC2 [2]): 0.12 nM
- IC50 (human PAC1): 145 nM
- IC50 (human VPAC1): 369 nM

Molecule: Hexanoyl-HSDAVFTDNYTRLRKQVAAKKYLQIIKNKRYGGPSSGAPPPS [Agonist P113]
- IC50 (human VPAC2 [1]): 0.69 nM
- EC50 (human VPAC2 [2]): 0.26 nM
- IC50 (human PAC1): 189 nM
- IC50 (human VPAC1): 293 nM

Molecule: Hexanoyl-HSDAVFTDNYTRLRKQVAGKKYLQSIKNKRYGGPSSGAPPPS [Agonist P275]
- IC50 (human VPAC2 [1]): 0.38 nM
- EC50 (human VPAC2 [2]): 0.32 nM
- IC50 (human PAC1): 630 nM
- IC50 (human VPAC1): 558 nM

Molecule: CCCCCC(=O)N[C@@H](Cc1c[nH]cn1)C(=O)N[C@@H](CO)C(=O)N[C@@H](CC(=O)O)C(=O)N[C@@H](C)C(=O)N[C@H](C(=O)N[C@@H](Cc1ccccc1)C(=O)N[C@H](C(=O)N[C@@H](CC(=O)O)C(=O)N[C@@H](CC(N)=O)C(=O)N[C@@H](Cc1ccc(O)cc1)C(=O)N[C@H](C(=O)N[C@@H](CCCNC(=N)N)C(=O)N[C@@H](CC(C)C)C(=O)N[C@@H](CCCNC(=N)N)C(=O)N[C@@H](CCCCN)C(=O)N[C@@H](CCC(N)=O)C(=O)N[C@@H](CCSC)C(=O)N[C@@H](C)C(=O)N[C@@H](C)C(=O)N[C@@H](CCC(N)=O)C(=O)N[C@@H](CCCCN)C(=O)N[C@@H](Cc1ccc(O)cc1)C(=O)N[C@@H](CC(C)C)C(=O)N[C@@H](CC(N)=O)C(=O)N[C@@H](CCC(N)=O)C(=O)N[C@@H](CC(C)C)C(=O)N[C@@H](CCCCN)C(=O)N[C@@H](CCCCN)C(=O)NCC(=O)NCC(=O)N1CCC[C@H]1C(=O)N[C@@H](CO)C(=O)N[C@@H](CO)C(=O)NCC(=O)N[C@@H](C)C(=O)N1CCC[C@H]1C(=O)N1CCC[C@H]1C(=O)N1CCC[C@H]1C(=O)N[C@@H](CO)C(=O)O)[C@@H](C)O)[C@@H](C)O)C(C)C [Agonist P143] (Hexanoyl-HSDAVFTDNYTRLRKQMAAQKYLNQLKKGGPSSGAPPPS-OH; C-terminus assumed)
- IC50 (human VPAC2 [1]): 0.5 nM
- EC50 (human VPAC2 [2]): 0.1 nM
- IC50 (human PAC1): 1080 nM
- IC50 (human VPAC1): 605 nM

Molecule: Hexanoyl-HSDAVFTDNYTRLLAQLALQKYLQSIKNKRYGGPSSGAPPPS [Agonist P195]
- IC50 (human VPAC2 [1]): 2.34 nM
- EC50 (human VPAC2 [2]): 0.25 nM
- IC50 (human PAC1): 139 nM
- IC50 (human VPAC1): > 3000 nM

Molecule: Hexanoyl-HSDAVFTDNYTRLRKQVAAKKYLQSWKNKRYGGPSSGAPPPS [Agonist P110]
- IC50 (human VPAC2 [1]): 0.1 nM
- EC50 (human VPAC2 [2]): 0.13 nM
- IC50 (human PAC1): 321 nM
- IC50 (human VPAC1): 425 nM
